Measured values: article PMC6300691, “Enhancement of Heat Stability and Kinetic Parameters of the Maize Endosperm ADP-Glucose Pyrophosphorylase by Mutagenesis of Amino Acids in the Small Subunit With High B Factors” (Frontiers in Plant Science, 2018)
Changes are numbered by the printed parent chain.

Tests used:
Assay in all cases: Initial-rate assay without 3-PGA, ATP and G-1-P both varied (0.01-10 mM and 0.1-25 mM), global fit to a sequential mechanism.
Format in all cases: biochemical
Settings in all cases: read-out: ATP Km (absence of 3-PGA)
[1] = biological target: T1, E123G, R331K, K402R (BT2-BF) (Zea mays, UniProt P55241+Q947C0, E123G/R331K/K402R)
T1 construct: BT2-BF with wild type SH2 (SH2-WT/BT2-BF), E. coli, purified
T1 sequence (Q947C0 1-475 E123G/R331K/K402R): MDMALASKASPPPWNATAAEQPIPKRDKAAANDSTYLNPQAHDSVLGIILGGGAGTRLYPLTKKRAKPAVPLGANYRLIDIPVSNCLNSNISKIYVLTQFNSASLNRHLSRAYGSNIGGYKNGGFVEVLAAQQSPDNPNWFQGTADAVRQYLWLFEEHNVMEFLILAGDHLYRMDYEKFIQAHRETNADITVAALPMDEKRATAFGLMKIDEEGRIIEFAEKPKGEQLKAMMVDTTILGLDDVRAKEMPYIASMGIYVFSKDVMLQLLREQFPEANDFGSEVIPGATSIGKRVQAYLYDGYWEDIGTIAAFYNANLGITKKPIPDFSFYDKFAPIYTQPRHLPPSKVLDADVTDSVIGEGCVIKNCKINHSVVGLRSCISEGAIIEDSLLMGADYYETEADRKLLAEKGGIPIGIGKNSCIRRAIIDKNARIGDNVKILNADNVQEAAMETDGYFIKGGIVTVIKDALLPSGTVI
T1 sequence (P55241 46-516): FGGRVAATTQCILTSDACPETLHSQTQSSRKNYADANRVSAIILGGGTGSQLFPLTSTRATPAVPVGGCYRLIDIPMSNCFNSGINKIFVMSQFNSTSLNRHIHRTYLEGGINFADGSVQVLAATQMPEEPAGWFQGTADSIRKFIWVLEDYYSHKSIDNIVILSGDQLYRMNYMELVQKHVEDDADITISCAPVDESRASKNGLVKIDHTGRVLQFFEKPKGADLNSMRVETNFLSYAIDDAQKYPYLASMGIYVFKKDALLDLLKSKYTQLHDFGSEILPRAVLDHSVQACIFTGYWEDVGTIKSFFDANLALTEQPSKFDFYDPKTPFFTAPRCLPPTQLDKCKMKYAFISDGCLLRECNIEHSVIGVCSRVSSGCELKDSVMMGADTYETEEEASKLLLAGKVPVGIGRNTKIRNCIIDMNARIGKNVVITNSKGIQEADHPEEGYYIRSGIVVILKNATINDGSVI
Source text: (§1) Activity in the absence of the activator 3PGA was examined. While 3PGA is a noted activator for plant AGPase, the mechanism of activation differs for the various AGPases. […] Thus, the term “activation fold” in the literature is merely an activity reported at single fixed substrate concentrations.
(§2) The small subunit mutant, MP, contains the first 198 amino acids of the small subunit of the maize endosperm enzyme and the last 277 amino acids from the potato tuber enzyme resulting in thirty-three amino acid sites that differ from the maize endosperm enzyme ([Cross et al., 2004]).

SH2-E = biological target: T2, SH2-E (Zea mays, UniProt P55241+Q947C0, N131R/T142F/A160T/Q261S/A396S/V416I/C424V/S444A)
T2 construct: SH2-E with wild type BT2 (SH2-E/BT2-WT), E. coli, purified
T2 sequence (Q947C0 1-475): T1 sequence (Q947C0 1-475 E123G/R331K/K402R) with G123E, K331R, R402K
T2 sequence (P55241 46-516 N131R/T142F/A160T/Q261S/A396S/V416I/C424V/S444A): T1 sequence (P55241 46-516) with N86R, T97F, A115T, Q216S, A351S, V371I, C379V, S399A
Source text: as §1, §2

SH2-E/BT2-BF = biological target: T3, SH2-E/BT2-BF (Zea mays, UniProt P55241+Q947C0, E123G/N131R/T142F/A160T/Q261S/R331K/A396S/K402R/V416I/C424V/S444A)
T3 construct: SH2-E co-expressed with BT2-BF, E. coli, purified
T3 sequence (Q947C0 1-475 E123G/R331K/K402R): T1 sequence (Q947C0 1-475 E123G/R331K/K402R)
T3 sequence (P55241 46-516 N131R/T142F/A160T/Q261S/A396S/V416I/C424V/S444A): T1 sequence (P55241 46-516) with N86R, T97F, A115T, Q216S, A351S, V371I, C379V, S399A
Source text: as §1, §2

SH2-ISM = biological target: T4, SH2-ISM (Zea mays, UniProt P55241+Q947C0, Q96G/D161G/A443R)
T4 construct: SH2-ISM with wild type BT2 (SH2-ISM/BT2-WT), E. coli, purified
T4 sequence (Q947C0 1-475): T1 sequence (Q947C0 1-475 E123G/R331K/K402R) with G123E, K331R, R402K
T4 sequence (P55241 46-516 Q96G/D161G/A443R): T1 sequence (P55241 46-516) with Q51G, D116G, A398R
Source text: as §1, §2

Nc1ncnc2c1ncn2[C@@H]1O[C@H](COP(=O)(O)OP(=O)(O)OP(=O)(O)O)[C@@H](O)[C@H]1O [ATP, adenosine 5'-triphosphate]
Km [1]: 300 ± 250 µM | Km (SH2-E): 2500 ± 430 µM | Km (SH2-E/BT2-BF): 2410 ± 350 µM | Km (SH2-ISM): 100 ± 48 µM
